Test results: ChEMBL document CHEMBL5523719, “Structure-activity relationship study of new carbazole sulfonamide derivatives as anticancer agents with dual-target mechanism” (Eur J Med Chem, 2024)
Activity calls are given as the source filed them. The calls are words filed in the database; no cut-off is given here.

How the values were obtained:
[1] = tested on: MCF7; assay: Induction of cell cycle arrest in human MCF7 cells assessed as accumulation of cells at G2/M phase at 500 nM measured after 24 hrs by flow cytometry (reference value: 22.84%); type: functional
[2] = tested on: MCF7; assay: Induction of apoptosis in human MCF7 cells assessed as viable cells at 25 nM measured after 48 hrs by AnnexinV/PI double staining assays (reference value: 91.20%); type: functional; conditions: read-out: Activity
[3] = tested on: MCF7; assay: Induction of cell cycle arrest in human MCF7 cells assessed as accumulation of cells at G0/G1 phase at 4 nM measured after 24 hrs by flow cytometry (reference value: 61.73%); type: functional
[4] = tested on: MCF7; assay: Induction of apoptosis in human MCF7 cells assessed as necrotic cells at 25 nM measured after 48 hrs by AnnexinV/PI double staining assays (reference value: 0.89%); type: functional
[5] = tested on: MCF7; assay: Induction of cell cycle arrest in human MCF7 cells assessed as accumulation of cells at G0/G1 phase at 500 nM measured after 24 hrs by flow cytometry (reference value: 61.73%); type: functional
[6] = tested on: MCF7; assay: Induction of apoptosis in human MCF7 cells assessed as early apoptotic cells at 50 nM measured after 48 hrs by AnnexinV/PI double staining assays (reference value: 5.32%); type: functional
[7] = target: T1, DNA topoisomerase 1 (Homo sapiens) (UniProt P11387); assay: Inhibition of human DNA topoisomerase 1 assessed as relaxation of supercoiled pBR322 DNA as substrate incubated for 30 mins by gel staining based electrophoresis analysis; conditions: dose 20-200 µM
T1 sequence (whole entry): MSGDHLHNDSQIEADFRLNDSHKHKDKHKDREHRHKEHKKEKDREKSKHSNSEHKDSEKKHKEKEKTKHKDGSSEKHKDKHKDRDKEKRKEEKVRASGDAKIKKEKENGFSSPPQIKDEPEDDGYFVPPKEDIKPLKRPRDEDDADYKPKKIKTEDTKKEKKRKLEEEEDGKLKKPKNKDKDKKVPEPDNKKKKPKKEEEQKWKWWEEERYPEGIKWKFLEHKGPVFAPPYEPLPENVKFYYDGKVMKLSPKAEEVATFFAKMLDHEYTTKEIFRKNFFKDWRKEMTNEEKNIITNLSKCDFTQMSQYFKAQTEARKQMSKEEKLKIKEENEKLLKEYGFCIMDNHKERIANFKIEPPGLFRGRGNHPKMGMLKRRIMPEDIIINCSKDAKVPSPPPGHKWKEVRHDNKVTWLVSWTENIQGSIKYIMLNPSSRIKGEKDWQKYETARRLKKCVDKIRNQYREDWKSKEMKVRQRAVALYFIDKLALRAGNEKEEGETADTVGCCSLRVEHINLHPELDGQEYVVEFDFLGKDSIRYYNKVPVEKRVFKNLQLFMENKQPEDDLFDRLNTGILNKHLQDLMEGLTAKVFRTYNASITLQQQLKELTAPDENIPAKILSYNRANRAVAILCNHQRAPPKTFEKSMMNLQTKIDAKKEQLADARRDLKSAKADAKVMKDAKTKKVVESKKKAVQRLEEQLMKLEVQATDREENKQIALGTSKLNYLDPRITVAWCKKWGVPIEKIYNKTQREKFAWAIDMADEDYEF

[8] = tested on: MCF7; assay: Induction of apoptosis in human MCF7 cells assessed as necrotic cells at 6.25 nM measured after 48 hrs by AnnexinV/PI double staining assays (reference value: 0.89%); type: functional
[9] = tested on: HMEC-1; assay: Angiogenic activity against human HMEC-1 cells assessed as decrease in vascular area measured after 48 hrs by Endothelial tube formation assay; type: functional, cell-based; conditions: dose 1-100 nM
[10] = tested on: MCF7; assay: Induction of apoptosis in human MCF7 cells assessed as late apoptotic cells at 50 nM measured after 48 hrs by AnnexinV/PI double staining assays (reference value: 2.60%); type: functional
[11] = target: DNA topoisomerase 2-alpha (Homo sapiens) (UniProt P11388); assay: Inhibition of human DNA topoisomerase 2 assessed as relaxation of supercoiled pBR322 DNA as substrate at 20 uM incubated for 30 mins by gel staining based electrophoresis analysis
[12] = tested on: HMEC-1; assay: Anti-migration activity in human HMEC-1 cells assessed as inhibition of cell migration at 5 nM measured after 48 hrs by Scratching assay; type: functional, cell-based
[13] = tested on: MCF7; assay: Induction of cell cycle arrest in human MCF7 cells assessed as increase in phosphorylation of histone H3 at […] by Western blot analysis; type: functional, cell-based; conditions: dose lower 12.5 µM
[14] = tested on: MCF7; assay: Induction of apoptosis in human MCF7 cells assessed as late apoptotic cells at 12.5 nM measured after 48 hrs by AnnexinV/PI double staining assays (reference value: 2.60%); type: functional
[15] = tested on: MCF7; assay: Induction of cell cycle arrest in human MCF7 cells assessed as accumulation of cells at G0/G1 phase at 100 nM measured after 24 hrs by flow cytometry (reference value: 61.73%); type: functional
[16] = tested on: MIA PaCa-2; assay: Antiproliferation activity against human MIA PaCa-2 cells measured after 72 hrs incubation by MTT assay; type: functional, cell-based; conditions: MIA PaCa-2, 72 h
[17] = tested on: MCF7; assay: Antiproliferation activity against human MCF7 cells measured after 72 hrs incubation by MTT assay; type: functional, cell-based; conditions: MCF7, 72 h
[18] = tested on: MCF7; assay: Induction of cell cycle arrest in human MCF7 cells assessed as increase in cyclin B1 protein expression at […] by Western blot analysis; type: functional, cell-based; conditions: dose lower 12.5 µM
[19] = tested on: NCI-H460; assay: Antiproliferation activity against human NCI-H460 cells measured after 72 hrs incubation by MTT assay; type: functional, cell-based; conditions: NCI-H460, 72 h

Sequence of DNA topoisomerase 2-alpha (Homo sapiens) (P11388 whole entry): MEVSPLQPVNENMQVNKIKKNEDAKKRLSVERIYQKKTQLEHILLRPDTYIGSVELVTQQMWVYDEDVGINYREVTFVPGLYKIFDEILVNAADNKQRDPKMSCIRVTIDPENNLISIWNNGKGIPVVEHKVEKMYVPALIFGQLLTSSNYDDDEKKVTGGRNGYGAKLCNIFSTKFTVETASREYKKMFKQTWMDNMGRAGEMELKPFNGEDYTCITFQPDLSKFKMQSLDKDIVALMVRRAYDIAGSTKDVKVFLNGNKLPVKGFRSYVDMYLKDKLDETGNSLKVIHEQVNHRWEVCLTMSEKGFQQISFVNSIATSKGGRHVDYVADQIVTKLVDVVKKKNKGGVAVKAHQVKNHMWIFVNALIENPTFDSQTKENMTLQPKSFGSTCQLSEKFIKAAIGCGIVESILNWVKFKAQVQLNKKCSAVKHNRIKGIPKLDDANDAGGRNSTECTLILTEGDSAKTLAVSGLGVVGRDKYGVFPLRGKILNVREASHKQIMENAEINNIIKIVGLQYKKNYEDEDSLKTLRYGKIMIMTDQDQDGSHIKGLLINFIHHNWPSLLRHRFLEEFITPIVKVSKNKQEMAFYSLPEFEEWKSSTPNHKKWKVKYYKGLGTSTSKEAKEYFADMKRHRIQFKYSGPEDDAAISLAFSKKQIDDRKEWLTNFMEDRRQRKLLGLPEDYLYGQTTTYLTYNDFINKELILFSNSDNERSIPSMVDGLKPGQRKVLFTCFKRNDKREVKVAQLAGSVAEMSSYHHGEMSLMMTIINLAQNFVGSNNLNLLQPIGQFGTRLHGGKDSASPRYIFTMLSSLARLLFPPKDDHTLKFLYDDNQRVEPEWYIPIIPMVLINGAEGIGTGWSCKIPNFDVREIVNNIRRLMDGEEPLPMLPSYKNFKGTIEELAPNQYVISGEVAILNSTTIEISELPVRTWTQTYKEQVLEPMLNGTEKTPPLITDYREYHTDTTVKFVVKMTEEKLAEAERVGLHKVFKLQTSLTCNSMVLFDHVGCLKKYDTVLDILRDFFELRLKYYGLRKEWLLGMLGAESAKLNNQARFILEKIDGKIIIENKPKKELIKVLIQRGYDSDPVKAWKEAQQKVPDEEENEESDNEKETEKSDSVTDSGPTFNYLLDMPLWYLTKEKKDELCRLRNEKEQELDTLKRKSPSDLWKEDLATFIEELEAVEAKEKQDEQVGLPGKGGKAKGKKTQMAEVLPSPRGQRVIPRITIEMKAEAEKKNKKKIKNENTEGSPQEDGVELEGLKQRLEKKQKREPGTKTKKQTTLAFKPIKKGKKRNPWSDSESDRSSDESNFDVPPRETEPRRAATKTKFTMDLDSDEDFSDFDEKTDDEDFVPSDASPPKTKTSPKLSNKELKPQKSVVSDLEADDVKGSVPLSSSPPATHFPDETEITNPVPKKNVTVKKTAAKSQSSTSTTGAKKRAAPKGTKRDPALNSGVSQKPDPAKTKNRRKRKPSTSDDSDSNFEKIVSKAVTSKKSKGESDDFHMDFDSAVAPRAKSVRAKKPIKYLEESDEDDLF

- inhibition [7]: Dose-Dependent Effect
- inhibition [11]: inactive
- IC50 [16]: 13.3 nM
- IC50 [17]: 12.2 nM
- IC50 [19]: 18 nM
SMILES: COc1cc(NS(=O)(=O)c2ccc3c(c2)c2ccc(N)cc2n3C)c(OC)cc1Cl
- Activity [1]: 53.2%
- viability at 0.025 µM [2]: 39.3%
- Activity [3]: 47.57%
- Activity [4]: 0.51%
- Activity [5]: 5.54%
- Activity [6]: 50.98%
- Activity [8]: 0.1%
- Activity [9]: Dose-Dependent Effect
- Activity [10]: 14.69%
- inhibition [12]: Active
- Activity [13]: Dose-Dependent Effect
- Activity [14]: 8.66%
- Activity [15]: 4.32%
- Activity [18]: Dose-Dependent Effect
